Patent US11007243B2, “Enzyme-assisted supercritical extraction of nigella sativa seeds” (priority 2016, dated 2021)
Read-outs that look alike come from different tables or passages of the source.

Key:
[1] = tested on: mice; details: cited from earlier work
[2] = tested on: rats; details: cited from earlier work
[3] = tested on: rabbits; details: cited from earlier work
[4] = Roghani et al. 2012; cited from earlier work
[5] = tested on: Albino Wistar rats injected with Ibotenic acid; experiment: Open field test in ibotenic acid (I.C.V.) model; assay type: in vivo; details: IBO i.c.v., oral treatment 30 days, FIG. 2b
Method: Ibotenic acid (IBO) is a non-selective glutamate receptor […] which can be used as a powerful neurotoxin to produce anxiety, stress, depression and dementia. It is injected intra cerebro-ventricularly as a brain lesioning agent specially to destroy the neuronal cells in hippocampal and cortical region responsible for fear, anxiety and depression, as well as learning and memory. […] The NMDA subtype of glutamate receptor is an important mediator of synaptic plasticity and plays a central role in the neurobiological mechanisms of emotionality including fear, anxiety and depression, as well as learning and memory (Barkus et al., European Journal of Pharmacology, 2010; 626(1), 49-56).
Ibotenic acid is administered to Albino Wistar rats at the dose of 5 μg/μL/intracerebroventricularly using Hamilton syringe at the rate of 0.1 μL/min. The animals were then treated continuously for 30 days with Black cumin extracts (BCE) orally at various dosages (thymoquinone content) and evaluated for its anxiolytic properties using elevated plus maze and modified open field apparatus. The various black cumin extracts (BCE) dosages evaluated in the study are outlined in Table-3.
The open field test is conventionally designed to assess the state of anxiety, locomotor and exploratory activity. […] Results were statistically analysed by one-way ANOVA followed by Tukey's multiple comparison test.

[6] = tested on: IMR-32 cell line; experiment: SRB growth assay on IMR-32 neuronal cell line; assay type: cell-based; details: Homo sapiens, IMR-32, read-out: GI 50 (concentration causing 50% inhibition of cell growth)
[7] = tested on: U373-MG cell line; experiment: SRB growth assay on U373 MG glial cell line; assay type: cell-based; details: Homo sapiens, read-out: GI 50 (concentration causing 50% inhibition of cell growth)

In the case of `CC1=CC(=O)C(C(C)C)=CC1=O` [TQ, 2-isopropyl-5-methyl-1,4-benzoquinone], the LD50 ([1]; intra-peritoneal injection) is given as 104.7 mg/kg, the LD50 ([1]; oral ingestion) is given as 870.9 mg/kg and the LD50 ([2]; intra-peritoneal injection) is given as 57.5 mg/kg. The LD50 ([2]; oral ingestion) was 794.3 mg/kg, the LD50 [3] was 2.4 g/kg and the Memory improvement [4] was “memory improvement in a dose dependent manner”.

With `CC12CC3CC(C)(C1)CC(N)(C3)C2` [Memantine] the “Rearing behaviour (rearing frequency), open field” value [5] was “no significant difference between the BCE4 treated group, memantine group and the control group”.

With `COc1cccc2c1C(=O)c1c(O)c3c(c(O)c1C2=O)C[C@@](O)(C(=O)CO)C[C@@H]3O[C@H]1C[C@H](N)[C@H](O)[C@H](C)O1` [Adriamycin] the GI50 [6] was < 10 µg/mL and the GI50 [7] was < 10 µg/mL.
